{
  "source": "patent US7001619B2",
  "about": "“Hepatocurative effect of emblica officinalis against CYP 450 bio-activation hepatotoxicity of drugs” (Council of Scientific and Industrial Research, priority 2002, dated 2006)",
  "key": {"[1]": {"test_system": "hepatotoxicity produced by galactosamine", "assay": "Hepatotoxicity produced by galactosamine (not dependent on CYP 450 bioactivation), LDH and GPT leakage", "format": "in vivo", "settings": "galactosamine alone"}, "[2]": {"test_system": "hepatotoxicity produced by paracetamol", "assay": "Hepatotoxicity produced by paracetamol (CYP 450 bioactivation), LDH and GPT release in serum", "format": "in vivo", "settings": "paracetamol alone"}, "CYP 450 1A1": {"biological_target": "T1, CYP 450 1A1 (Homo sapiens, UniProt P04798)", "T1 sequence (P04798 1-512)": "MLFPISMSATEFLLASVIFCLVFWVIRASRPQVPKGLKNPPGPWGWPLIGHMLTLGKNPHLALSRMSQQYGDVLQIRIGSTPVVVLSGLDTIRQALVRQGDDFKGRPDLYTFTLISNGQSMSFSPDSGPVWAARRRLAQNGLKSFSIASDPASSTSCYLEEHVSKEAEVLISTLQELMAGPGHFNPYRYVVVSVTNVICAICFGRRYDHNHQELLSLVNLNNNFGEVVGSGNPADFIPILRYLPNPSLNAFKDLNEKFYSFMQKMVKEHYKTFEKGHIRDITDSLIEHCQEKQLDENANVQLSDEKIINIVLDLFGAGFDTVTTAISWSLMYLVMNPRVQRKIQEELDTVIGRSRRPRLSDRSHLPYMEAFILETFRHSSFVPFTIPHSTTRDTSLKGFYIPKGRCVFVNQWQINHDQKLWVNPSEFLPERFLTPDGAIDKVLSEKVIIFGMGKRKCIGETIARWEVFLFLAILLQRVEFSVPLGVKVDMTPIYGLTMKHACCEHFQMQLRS", "settings": "cited from earlier work"}},
  "data": [
    {"smiles": "N[C@H]1C(O)O[C@H](CO)[C@H](O)[C@@H]1O", "note": "(stereo partly drawn) [galactosamine]", "values": [
      {"measurement": "Toxicity", "setting": "[1]", "result": 93, "unit": "%"}
    ]},
    {"smiles": "CC(=O)Nc1ccc(O)cc1", "note": "[paracetamol]", "values": [
      {"measurement": "Toxicity", "setting": "[2]", "result": 93, "unit": "%"}
    ]},
    {"smiles": "O=C(/C=C/C=C/c1ccc2c(c1)OCO2)N1CCCCC1", "note": "[piperine]", "values": [
      {"measurement": "inhibition of CYP 450 1A1 (in words)", "setting": "CYP 450 1A1", "result": "specific inhibitor of CYP 450 1A1"}
    ]}
  ]
}
